According to patent US4064255A, “Compositions containing new indole derivatives and their use in pharmacology” (Mar-Pha Societe d'Etudes et d'Exploitation de Marques, priority 1975, dated 1977):
pIC50: −log10 of the molar value. Like-named read-outs stand apart in the source and are kept apart here.

How the values were obtained:
[1] = system: serotonin (5HT) recapture by brain synaptosomes; assay: in vitro inhibition of serotonin uptake (recapture) by rat-brain synaptosomes; type: biochemical; conditions: for pIC50: rat-brain synaptosomes, 5HT, read-out: I50, dose inhibiting 50% of recapture by brain synaptosomes of serotonin (5HT); for selectivity of action on cerebral serotonin: in words
Description: (§1) The entire disclosure of Kannengiesser et al is relied on in this connection and incorporated herein by reference.

[2] = acute toxicity in mice (LD50); type: in vivo, male mouse CD1 (Charles River); conditions: mouse, in vivo, male CD1 mice, three days' observation
Procedure: (§2) The toxicity and acute symptomatologies of the compounds of the invention were determined in the male mouse CD1 (Charles River) in intravenous and oral manner. The LD50 were computed following three days' observation by the cumulative method of Reed & Muench (Am. J. Hyg. 27, 493, 1938).

[3] = system: noradrenaline (NA) recapture by brain synaptosomes; assay: in vitro inhibition of noradrenaline uptake (recapture) by rat-brain synaptosomes; type: biochemical; conditions: read-out: I50, dose inhibiting 50% of recapture by brain synaptosomes of noradrenaline (NA)
Description: as §1

[4] = system: dopamine (DA) recapture by brain synaptosomes; assay: in vitro inhibition of dopamine uptake (recapture) by rat-brain synaptosomes; type: biochemical; conditions: read-out: I50, dose inhibiting 50% of recapture by brain synaptosomes of dopamine (DA)
Description: as §1

5-HTP hypermotility = assay: potentiation of 5-HTP hypermotility in mice; type: in vivo, male mouse CD1 (Charles River); conditions: 30 min after 5-HTP 150 mg/kg i.p., motility 45th-75th minute
Procedure: The effectiveness of the compounds of the present invention in blocking serotonine uptake also was shown using the potentiation test of 5-hydroxy tryptophane (5-HTP).
1, 11-1972. This test consists of looking for the potentiation of the hypermotility induced by 5-HTP. for high dosages the precursor will induce very characteristic hypermotility with jumps.
The animals are divided into groups of 25 mice and treated i.p. with 150 mg/kg of 5-HTP. The products to be tested are administered sub-cutaneously, 30 minutes after the 5-HTP, the control group receiving only the administrative vehicle. The overall motility of the animals is measured from the 45th to the 75th minute after (administration of) the 5-HTP. The results for the treated groups are shown in % increase in motility with respect to the control group.

mice = assay: acute toxicity in mice (LD50); type: in vivo, male mouse CD1 (Charles River); conditions: intravenous, male CD1 mice, three days' observation; 4320 min
Procedure: as §2

[5] = intravenous, read-out: LD50 I.V.

SMILES	pIC50 [1]	LD50 at 72 h [2, 5]	LD50 at 72 h ([2]; oral, read-out: LD50 orally)	pIC50 [3]	pIC50 [4]	selectivity of action on cerebral serotonin [1]	Potentiation of 5-HTP hypermotility, % change with respect to controls (5-HTP hypermotility; 5 mg/kg s.c.)	Potentiation of 5-HTP hypermotility, % change with respect to controls (5-HTP hypermotility; 25 mg/kg s.c.)	Potentiation of 5-HTP hypermotility, % change with respect to controls (5-HTP hypermotility; 15 mg/kg s.c.)	LD50 I.V. (mice)
c1ccc2c(CC3CCNCC3)c[nH]c2c1 [Example 11, (INDOLYL-3 METHYL) -4 PIPERIDINE]	6.82	57 mg/kg	225 mg/kg	5.30	5.40	–	–	–	–	–
c1ccc2c(CCC3CCNCC3)c[nH]c2c1 [Example 10, [(INDOLYL-3)-2 ETHYL]-4 PIPERIDINE]	7.40	60 mg/kg	600 mg/kg	5.10	5.40	act more selectively than clomipramine	+196%	+262%	–	–
O=C(CC1CCNCC1)c1c[nH]c2ccc(Cl)cc12 [Example 3, (CHLORO-5 INDOLYL-3) (PIPERIDYL-4 METHYL) KETONE]	6.22	–	300 to 900 mg/kg	4.52	4.92	–	–	–	–	–
COc1ccc2[nH]cc(C(=O)CC3CCNCC3)c2c1 [Example 2, (METHOXY-5 INDOLYL-3) (PIPERIDYL-4 METHYL) KETONE]	6.19	44 mg/kg	> 900 mg/kg	3.80	4.15	–	–	–	–	–
Cn1cc(CCC2CCNCC2)c2ccccc21 [Example 9, [(METHYL-1 INDOLYL-3)-2 ETHYL]-4 PIPERIDINE]	7.70	44 mg/kg	225 mg/kg	4.22	4.22	act more selectively than clomipramine	+134%	+296%	–	–
CN(C)CCCN1c2ccccc2CCc2ccc(Cl)cc21 [Clomipramine, reference compound]	–	45 mg/kg	380 mg/kg	5.15	5.30	–	–	–	+190%	–
c1ccc2c(CCCC3CCNCC3)c[nH]c2c1 [Example 13, [(INDOLYL-3)-3 PROPYL]-4 PIPERIDINE]	7.40	–	–	4.89	5.26	act more selectively than clomipramine	–	–	–	–
O=C(CC1CCNCC1)c1c[nH]c2ccccc12 [Example 1, INDOLYL-3 (PIPERIDYL-4 METHYL) KETONE]	7.10	–	–	4.70	4.19	act more selectively than clomipramine	–	–	–	47 mg/kg
